Blank lines part the entries; values can stand above or below the compound they belong to. Activity calls are given as the source filed them.
Columns and labels:
[1] = target: T1, DNA repair protein RAD52 homolog (Homo sapiens, UniProt P43351); assay type: functional, biochemical
T1 sequence (P43351 whole entry): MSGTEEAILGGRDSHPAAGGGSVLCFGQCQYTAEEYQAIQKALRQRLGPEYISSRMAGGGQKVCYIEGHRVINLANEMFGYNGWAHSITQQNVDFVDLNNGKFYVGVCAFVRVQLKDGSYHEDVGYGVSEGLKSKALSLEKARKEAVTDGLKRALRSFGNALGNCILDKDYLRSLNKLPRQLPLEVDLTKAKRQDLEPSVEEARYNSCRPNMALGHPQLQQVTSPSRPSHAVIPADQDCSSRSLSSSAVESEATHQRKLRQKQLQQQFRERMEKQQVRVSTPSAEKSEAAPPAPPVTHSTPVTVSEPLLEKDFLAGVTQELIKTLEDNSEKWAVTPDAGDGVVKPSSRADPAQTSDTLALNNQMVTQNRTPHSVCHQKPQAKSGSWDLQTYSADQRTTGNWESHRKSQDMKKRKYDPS

HEK293 [2] = assay: membrane integrity loss in HEK cells – cell-based, fluorescence, cytotoxicity control for IDE activator project, dose response (AID 588440); assay type: functional; conditions: Homo sapiens;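 note: cytotoxicity by LDH release measuring loss of membrane integrity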
HEK293 [3] = assay: optical interference in Abeta FP readout, dose response, artefact control for IDE activator project, biochemical, fluorescence polarization (AID 588442); assay type: functional, cell-based; conditions: Homo sapiens
Insulin-degrading enzyme [4] = target: T2, Insulin-degrading enzyme (Homo sapiens, UniProt P14735); assay: recombinant IDE activation, cell-free – biochemical, fluorescence polarization, counter-screen for IDE activator project, dose response (AID 588681)
T2 sequence (P14735 whole entry): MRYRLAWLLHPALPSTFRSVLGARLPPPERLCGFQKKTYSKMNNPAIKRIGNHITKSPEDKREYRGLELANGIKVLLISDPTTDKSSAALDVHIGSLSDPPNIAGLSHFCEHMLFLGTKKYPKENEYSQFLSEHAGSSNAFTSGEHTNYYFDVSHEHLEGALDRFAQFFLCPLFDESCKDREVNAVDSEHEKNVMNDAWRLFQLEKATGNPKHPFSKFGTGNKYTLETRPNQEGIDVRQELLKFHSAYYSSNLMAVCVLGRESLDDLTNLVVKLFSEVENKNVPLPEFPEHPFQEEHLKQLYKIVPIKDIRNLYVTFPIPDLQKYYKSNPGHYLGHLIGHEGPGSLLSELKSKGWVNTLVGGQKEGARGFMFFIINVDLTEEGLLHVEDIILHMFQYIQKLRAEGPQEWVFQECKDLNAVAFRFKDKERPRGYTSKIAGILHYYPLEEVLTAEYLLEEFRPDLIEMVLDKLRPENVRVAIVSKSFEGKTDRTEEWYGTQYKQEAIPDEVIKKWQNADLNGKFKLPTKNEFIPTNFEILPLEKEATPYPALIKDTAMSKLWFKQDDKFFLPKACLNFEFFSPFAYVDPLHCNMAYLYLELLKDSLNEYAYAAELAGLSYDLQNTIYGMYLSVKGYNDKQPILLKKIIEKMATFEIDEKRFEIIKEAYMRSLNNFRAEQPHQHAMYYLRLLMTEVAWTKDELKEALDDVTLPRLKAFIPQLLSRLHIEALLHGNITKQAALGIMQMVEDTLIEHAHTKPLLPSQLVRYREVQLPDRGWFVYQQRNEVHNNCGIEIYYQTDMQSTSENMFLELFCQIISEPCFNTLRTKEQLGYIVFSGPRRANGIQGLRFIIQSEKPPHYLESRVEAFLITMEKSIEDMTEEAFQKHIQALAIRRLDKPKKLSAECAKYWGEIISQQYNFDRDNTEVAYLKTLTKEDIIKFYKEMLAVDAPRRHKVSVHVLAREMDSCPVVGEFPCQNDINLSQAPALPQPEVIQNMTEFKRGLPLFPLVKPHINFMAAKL

Insulin-degrading enzyme [5] = target: T2, Insulin-degrading enzyme; assay: cellular IDE activation of Abeta substrate cleavage – fluorescence polarization, HEK cells, dose response (AID 588439); assay type: functional, cell-based
INS1 = assay: suppression of NO production in INS-1E cells – cell-based, Griess absorbance, dry powder, set 2, dose response (AID 488868); assay type: functional; conditions: Rattus norvegicus
[6] = target: Disintegrin and metalloproteinase domain-containing protein 17 (Homo sapiens, UniProt P78536); assay: inhibition of ADAM17 substrate cleavage – biochemical, quenched FRET substrate, counter-screen for ADAM10 exosite inhibitor project, dose response (AID 743253)
Disintegrin and metalloproteinase domain-containing protein 17, sequence (P78536 whole entry, the tested form may be a part): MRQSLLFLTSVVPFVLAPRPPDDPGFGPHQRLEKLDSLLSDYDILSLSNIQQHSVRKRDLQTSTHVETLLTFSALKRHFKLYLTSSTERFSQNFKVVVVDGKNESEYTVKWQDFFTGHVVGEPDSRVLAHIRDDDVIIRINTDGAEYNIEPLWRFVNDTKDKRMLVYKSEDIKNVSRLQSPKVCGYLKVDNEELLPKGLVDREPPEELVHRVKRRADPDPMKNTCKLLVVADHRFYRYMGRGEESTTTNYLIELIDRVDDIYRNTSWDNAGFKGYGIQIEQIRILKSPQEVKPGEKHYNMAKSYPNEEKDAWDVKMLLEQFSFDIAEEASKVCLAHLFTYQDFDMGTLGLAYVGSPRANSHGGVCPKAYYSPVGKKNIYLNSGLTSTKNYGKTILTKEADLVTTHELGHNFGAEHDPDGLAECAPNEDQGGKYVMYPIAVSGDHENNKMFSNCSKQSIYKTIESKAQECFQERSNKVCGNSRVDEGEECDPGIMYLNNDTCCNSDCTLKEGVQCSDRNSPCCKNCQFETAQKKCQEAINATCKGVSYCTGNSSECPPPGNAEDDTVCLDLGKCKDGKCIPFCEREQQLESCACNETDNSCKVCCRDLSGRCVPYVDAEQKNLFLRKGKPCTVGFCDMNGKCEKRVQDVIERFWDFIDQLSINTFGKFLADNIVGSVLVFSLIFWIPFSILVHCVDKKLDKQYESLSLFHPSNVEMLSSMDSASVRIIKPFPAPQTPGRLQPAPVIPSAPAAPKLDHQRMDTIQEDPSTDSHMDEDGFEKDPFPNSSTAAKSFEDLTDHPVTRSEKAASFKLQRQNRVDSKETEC

[7] = A cell-based HTS for delayed death inhibitors of the malarial parasite plastid Measured in Microorganism System Using Plate Reader - 2126-01_Inhibitor_Dose_DryPowder_Activity.; assay type: functional, organism-based
[8] = A cell-based HTS for delayed death inhibitors of the malarial parasite plastid Measured in Microorganism System Using Plate Reader - 2126-02_Inhibitor_Dose_DryPowder_Activity.; assay type: functional, organism-based
Erythrocyte = assay: FACS-based assay to assess parasite growth inhibition 96 hr Measured in Cell-Based System Using Flow Cytometry - 2126-05_Inhibitor_Dose_DryPowder_Activity. [Related pubchem assays (depositor defined):AID488774]; assay type: functional; conditions: Homo sapiens
[9] = FACS-based assay to assess parasite growth inhibition 48 hr Measured in Cell-Based System Using Flow Cytometry - 2126-03_Inhibitor_Dose_DryPowder_Activity. [Related pubchem assays (depositor defined):AID488774]; assay type: functional; conditions: Homo sapiens
[10] = potency of ADAM10 substrate cleavage blockers – biochemical, QFRET, dose response (AID 743254);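 note: ADAM10 enzyme with the DM2 quenched FRET peptide as substrate; EDANS fluorescence gain as the protease cuts the substrate; inhibitor potency against ADAM10 proteolytic activity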
[11] = target: T3, Sentrin-specific protease 6 (Homo sapiens, UniProt Q9GZR1); assay: SAR Analysis of small molecule inhibitors of Sentrin-specific protease 6 (SENP6) using a Luminescent assay. [Related pubchem assays (depositor defined):AID2582, AID2599]; assay type: functional
T3 sequence (Q9GZR1 whole entry): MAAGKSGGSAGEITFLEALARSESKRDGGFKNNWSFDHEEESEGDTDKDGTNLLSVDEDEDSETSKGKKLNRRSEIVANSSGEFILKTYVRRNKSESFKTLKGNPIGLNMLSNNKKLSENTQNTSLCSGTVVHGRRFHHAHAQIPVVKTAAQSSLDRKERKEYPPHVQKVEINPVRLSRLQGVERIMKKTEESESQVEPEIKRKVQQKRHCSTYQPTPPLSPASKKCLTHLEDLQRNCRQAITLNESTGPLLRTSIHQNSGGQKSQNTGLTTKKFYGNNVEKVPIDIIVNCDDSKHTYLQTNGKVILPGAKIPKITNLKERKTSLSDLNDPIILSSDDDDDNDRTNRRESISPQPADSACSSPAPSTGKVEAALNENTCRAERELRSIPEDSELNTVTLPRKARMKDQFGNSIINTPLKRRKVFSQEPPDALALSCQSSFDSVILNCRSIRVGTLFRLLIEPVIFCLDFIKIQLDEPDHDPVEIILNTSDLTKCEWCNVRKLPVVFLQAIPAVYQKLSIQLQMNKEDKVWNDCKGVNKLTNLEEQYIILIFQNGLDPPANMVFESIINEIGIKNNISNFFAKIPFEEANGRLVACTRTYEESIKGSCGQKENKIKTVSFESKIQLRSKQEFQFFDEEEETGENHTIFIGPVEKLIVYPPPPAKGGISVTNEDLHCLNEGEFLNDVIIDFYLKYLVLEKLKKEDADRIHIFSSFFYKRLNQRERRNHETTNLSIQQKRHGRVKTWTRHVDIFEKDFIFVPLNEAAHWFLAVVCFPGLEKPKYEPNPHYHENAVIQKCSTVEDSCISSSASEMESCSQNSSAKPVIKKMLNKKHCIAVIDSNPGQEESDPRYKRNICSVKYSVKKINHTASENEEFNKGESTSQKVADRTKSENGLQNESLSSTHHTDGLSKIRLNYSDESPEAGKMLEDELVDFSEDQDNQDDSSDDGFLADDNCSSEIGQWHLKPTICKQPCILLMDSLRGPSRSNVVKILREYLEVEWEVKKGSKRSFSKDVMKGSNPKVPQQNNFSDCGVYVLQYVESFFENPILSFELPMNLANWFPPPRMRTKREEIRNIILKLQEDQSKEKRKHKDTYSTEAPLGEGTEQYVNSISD

[12] = target: T3, Sentrin-specific protease 6; assay: inhibition of human SENP6 catalytic domain – biochemical, luminescence, set 2, SAR follow-up (AID 588598); assay type: functional
[13] = target: T4, Sentrin-specific protease 8 (Homo sapiens, UniProt Q96LD8); assay: inhibition of human SENP8 cleavage activity – biochemical, luminescence, SAR follow-up (AID 504501); assay type: functional
T4 sequence (Q96LD8 whole entry): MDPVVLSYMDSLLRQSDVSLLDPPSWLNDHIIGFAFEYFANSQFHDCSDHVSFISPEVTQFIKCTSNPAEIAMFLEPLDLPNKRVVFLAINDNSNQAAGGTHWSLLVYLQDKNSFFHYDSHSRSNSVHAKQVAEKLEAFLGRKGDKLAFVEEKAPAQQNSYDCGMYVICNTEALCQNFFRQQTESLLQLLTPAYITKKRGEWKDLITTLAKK

[14] = target: T5, Sentrin-specific protease 7 (Homo sapiens, UniProt Q9BQF6); assay: inhibition of human SENP7 cleavage activity – biochemical, luminescence, set 2, SAR follow-up (AID 588600); assay type: functional
T5 sequence (Q9BQF6 whole entry): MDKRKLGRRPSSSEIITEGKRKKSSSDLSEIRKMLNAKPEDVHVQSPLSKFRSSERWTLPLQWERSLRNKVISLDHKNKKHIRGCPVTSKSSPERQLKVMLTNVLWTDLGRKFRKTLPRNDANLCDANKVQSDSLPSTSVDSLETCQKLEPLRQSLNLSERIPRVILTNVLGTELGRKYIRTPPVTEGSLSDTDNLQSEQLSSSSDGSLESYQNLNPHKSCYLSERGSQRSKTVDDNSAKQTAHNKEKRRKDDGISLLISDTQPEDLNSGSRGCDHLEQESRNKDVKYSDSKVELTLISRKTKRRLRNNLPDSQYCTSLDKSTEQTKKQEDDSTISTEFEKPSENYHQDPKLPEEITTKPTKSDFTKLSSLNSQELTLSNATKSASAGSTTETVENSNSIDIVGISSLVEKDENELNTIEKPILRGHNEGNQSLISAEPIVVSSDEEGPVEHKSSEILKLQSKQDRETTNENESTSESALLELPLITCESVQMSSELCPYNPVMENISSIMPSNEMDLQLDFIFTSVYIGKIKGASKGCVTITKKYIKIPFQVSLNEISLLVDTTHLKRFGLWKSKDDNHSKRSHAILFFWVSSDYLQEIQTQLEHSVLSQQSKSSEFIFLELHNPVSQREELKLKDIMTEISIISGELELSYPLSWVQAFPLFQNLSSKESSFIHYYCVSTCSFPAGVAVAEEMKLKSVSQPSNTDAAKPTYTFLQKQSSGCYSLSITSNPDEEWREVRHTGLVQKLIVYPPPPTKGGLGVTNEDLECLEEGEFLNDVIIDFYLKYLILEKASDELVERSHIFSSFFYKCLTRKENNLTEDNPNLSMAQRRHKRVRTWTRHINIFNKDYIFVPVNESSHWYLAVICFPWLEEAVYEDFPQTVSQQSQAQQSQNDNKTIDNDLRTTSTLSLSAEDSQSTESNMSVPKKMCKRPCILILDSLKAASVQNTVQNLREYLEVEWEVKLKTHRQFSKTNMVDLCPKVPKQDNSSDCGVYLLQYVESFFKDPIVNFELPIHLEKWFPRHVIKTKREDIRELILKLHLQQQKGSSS

Caspase-3 [15] = target: T6, Caspase-3 (Homo sapiens, UniProt P42574); assay: inhibition of recombinant caspase-3 activity – biochemical, luminescence, set 2, selectivity assay for SENP protease inhibitor project, SAR follow-up (AID 588599); assay type: functional
T6 sequence (P42574 whole entry): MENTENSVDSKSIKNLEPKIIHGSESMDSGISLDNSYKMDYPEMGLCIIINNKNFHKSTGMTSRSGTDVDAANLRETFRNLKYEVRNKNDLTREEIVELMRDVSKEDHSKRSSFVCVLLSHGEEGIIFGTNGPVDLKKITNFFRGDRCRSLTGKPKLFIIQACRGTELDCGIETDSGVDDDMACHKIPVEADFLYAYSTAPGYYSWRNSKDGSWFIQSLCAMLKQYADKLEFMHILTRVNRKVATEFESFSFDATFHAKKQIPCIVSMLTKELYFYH

[16] = target: T4, Sentrin-specific protease 8; assay: inhibition of sentrin protease 8 – biochemical, luminescence, set 2, SAR follow-up (AID 588601); assay type: functional
Caspase-3 [17] = target: T6, Caspase-3; assay: SAR Analysis of small molecule inhibitors of Sentrin-specific proteases (SENPs) using a Caspase-3 Selectivity assay. [Related pubchem assays (depositor defined):AID2540, AID2599, AID434973, AID489001]; assay type: functional
[18] = target: T5, Sentrin-specific protease 7; assay: inhibition of human SENP7 cleavage activity – biochemical, luminescence, SAR follow-up (AID 504497); assay type: functional

Compound: O=c1c2c(-c3ccccc3)csc2nc2c3ccccc3c(NCCN3CCOCC3)nn12
AC50 [1]: 1580 nM (active) | IC50 (HEK293 [2]): 10600 nM (inactive) | EC50 (HEK293 [3]): > 55900 nM (inactive) | EC50 (Insulin-degrading enzyme [4]): 25200 nM (inactive) | EC50 (Insulin-degrading enzyme [5]): > 54700 nM (inactive)

Compound: COc1ccc(S(=O)(=O)N(C)C[C@@H]2Oc3ccc(NC(=O)Nc4cccc5ccccc45)cc3C(=O)N([C@@H](C)CO)C[C@H]2C)cc1
AC50 (INS1): 43800 nM (active)

Compound: C[C@@H]1CN([C@@H](C)COC(=O)C(C)(C)C)C(=O)c2cc(NC(=O)Nc3ccccc3)ccc2O[C@@H](C)CCCCO[C@H]1CN(C)S(=O)(=O)c1ccc(F)cc1
IC50 [6]: > 69500 nM (inactive) | AC50 [7]: 5.39 nM (active) | AC50 [8]: 8.77 nM (active) | AC50 (Erythrocyte): 5 nM (active) | AC50 [9]: 4.25 nM (active) | IC50 [10]: > 69500 nM (inactive)

IC50 [11]: 750 nM (active) | IC50 [12]: 1190 nM (active) | IC50 [14]: 1210 nM (active) | IC50 (Caspase-3 [15]): 954 nM (active) | IC50 (Caspase-3 [17]): 540 nM (active) | IC50 [18]: 890 nM (active)
Compound: O=C(Nc1nc2ccccc2s1)c1sccc1Cl
IC50 [13]: 710 nM (active) | IC50 [16]: 1220 nM (active)

Reference: ChEMBL document CHEMBL1201862, “PubChem BioAssay data set” (2004)
